test system: test plant species; assay: Post-emergent herbicidal activity test (greenhouse, foliar spray, visual growth reduction); format: in vivo; conditions: post-emergence, 336 h, ECHCG: barnyardgrass (Echinochloa crus-galli), 140 g ai/ha, 14 days after application, read-out: Visual Growth Reduction (%) 14 Days After Application, ECHCG
Summary of the method: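 Plants grown in greenhouse (15 h photoperiod, 23-29° C day/22-28° C night) to first or second true leaf stage were sprayed overhead with compound in acetone/water/isopropanol/DMSO/crop oil/X-77 carrier at 187 L/ha. Injury was scored visually after 14 d on a 0-100% scale versus solvent-blank and untreated controls.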

Row | SMILES | pest or weed control at 140 g/ha
1 | COC(=O)c1nc(-c2ccc3c(c2F)OC(F)(F)O3)c(F)cc1Cl [F229, Methyl 3-chloro-5-fluoro-6-(2,2,4-trifluorobenzo[d][1,3]dioxol-5-yl)picolinate] | 85 to 94%
2 | O=C(O)c1nc(-c2ccc(C(F)(F)F)cc2Cl)c(F)cc1Cl [F352, 3-chloro-6-(2-chloro-4-(trifluoromethyl)phenyl)-5-fluoropicolinic acid] | 95 to 100%

same assay, conditions: post-emergence, 336 h, IPOHE: ivy-leaf morning glory (Ipomoea hederacea), 140 g ai/ha, 14 days after application, read-out: Visual Growth Reduction (%) 14 Days After Application, IPOHE

Row | SMILES | pest or weed control at 140 g/ha
3 | COC(=O)c1nc(-c2ccc3c(c2F)OC(F)(F)O3)c(F)cc1Cl [F229, Methyl 3-chloro-5-fluoro-6-(2,2,4-trifluorobenzo[d][1,3]dioxol-5-yl)picolinate] | 95 to 100%
4 | O=C(O)c1nc(-c2ccc(C(F)(F)F)cc2Cl)c(F)cc1Cl [F352, 3-chloro-6-(2-chloro-4-(trifluoromethyl)phenyl)-5-fluoropicolinic acid] | 95 to 100%

same assay, conditions: post-emergence, 336 h, KCHSC: kochia (Bassia scoparia), 140 g ai/ha, 14 days after application, read-out: Visual Growth Reduction (%) 14 Days After Application, KCHSC

Row | SMILES | pest or weed control at 140 g/ha
5 | COC(=O)c1nc(-c2ccc3c(c2F)OC(F)(F)O3)c(F)cc1Cl [F229, Methyl 3-chloro-5-fluoro-6-(2,2,4-trifluorobenzo[d][1,3]dioxol-5-yl)picolinate] | 95 to 100%
6 | O=C(O)c1nc(-c2ccc(C(F)(F)F)cc2Cl)c(F)cc1Cl [F352, 3-chloro-6-(2-chloro-4-(trifluoromethyl)phenyl)-5-fluoropicolinic acid] | 85 to 94%

same assay, conditions: post-emergence, 336 h, ORYSA: rice (Oryza sativa), 140 g ai/ha, 14 days after application, read-out: Visual Growth Reduction (%) 14 Days After Application, ORYSA

Row | SMILES | pest or weed control at 140 g/ha
7 | COC(=O)c1nc(-c2ccc3c(c2F)OC(F)(F)O3)c(F)cc1Cl [F229, Methyl 3-chloro-5-fluoro-6-(2,2,4-trifluorobenzo[d][1,3]dioxol-5-yl)picolinate] | 0 to 29%
8 | O=C(O)c1nc(-c2ccc(C(F)(F)F)cc2Cl)c(F)cc1Cl [F352, 3-chloro-6-(2-chloro-4-(trifluoromethyl)phenyl)-5-fluoropicolinic acid] | 85 to 94%

same assay, conditions: post-emergence, 336 h, SETFA: giant foxtail (Setaria faberi), 140 g ai/ha, 14 days after application, read-out: Visual Growth Reduction (%) 14 Days After Application, SETFA

Row | SMILES | pest or weed control at 140 g/ha
9 | COC(=O)c1nc(-c2ccc3c(c2F)OC(F)(F)O3)c(F)cc1Cl [F229, Methyl 3-chloro-5-fluoro-6-(2,2,4-trifluorobenzo[d][1,3]dioxol-5-yl)picolinate] | 85 to 94%
10 | O=C(O)c1nc(-c2ccc(C(F)(F)F)cc2Cl)c(F)cc1Cl [F352, 3-chloro-6-(2-chloro-4-(trifluoromethyl)phenyl)-5-fluoropicolinic acid] | 95 to 100%

same assay, conditions: post-emergence, 336 h, SORVU: grain sorghum (Sorghum vulgare), 140 g ai/ha, 14 days after application, read-out: Visual Growth Reduction (%) 14 Days After Application, SORVU

Row | SMILES | pest or weed control at 140 g/ha
11 | COC(=O)c1nc(-c2ccc3c(c2F)OC(F)(F)O3)c(F)cc1Cl [F229, Methyl 3-chloro-5-fluoro-6-(2,2,4-trifluorobenzo[d][1,3]dioxol-5-yl)picolinate] | 95 to 100%
12 | O=C(O)c1nc(-c2ccc(C(F)(F)F)cc2Cl)c(F)cc1Cl [F352, 3-chloro-6-(2-chloro-4-(trifluoromethyl)phenyl)-5-fluoropicolinic acid] | 95 to 100%

same assay, conditions: post-emergence, 336 h, STEME: common chickweed (Stellaria media), 140 g ai/ha, 14 days after application, read-out: Visual Growth Reduction (%) 14 Days After Application, STEME

Row | SMILES | pest or weed control at 140 g/ha
13 | COC(=O)c1nc(-c2ccc3c(c2F)OC(F)(F)O3)c(F)cc1Cl [F229, Methyl 3-chloro-5-fluoro-6-(2,2,4-trifluorobenzo[d][1,3]dioxol-5-yl)picolinate] | 45 to 59%
14 | O=C(O)c1nc(-c2ccc(C(F)(F)F)cc2Cl)c(F)cc1Cl [F352, 3-chloro-6-(2-chloro-4-(trifluoromethyl)phenyl)-5-fluoropicolinic acid] | 60 to 74%

same assay, conditions: post-emergence, 336 h, TRZAS: wheat, spring (Triticum aestivum), 140 g ai/ha, 14 days after application, read-out: Visual Growth Reduction (%) 14 Days After Application, TRZAS

Row | SMILES | pest or weed control at 140 g/ha
15 | COC(=O)c1nc(-c2ccc3c(c2F)OC(F)(F)O3)c(F)cc1Cl [F229, Methyl 3-chloro-5-fluoro-6-(2,2,4-trifluorobenzo[d][1,3]dioxol-5-yl)picolinate] | 85 to 94%
16 | O=C(O)c1nc(-c2ccc(C(F)(F)F)cc2Cl)c(F)cc1Cl [F352, 3-chloro-6-(2-chloro-4-(trifluoromethyl)phenyl)-5-fluoropicolinic acid] | 95 to 100%

same assay, conditions: post-emergence, 336 h, blackgrass (Alopecurus myosuroides), 14 Days After Application, 140 g ai/ha, read-out: Visual Growth Reduction (%) ALOMY

Row | SMILES | pest or weed control at 140 g/ha
17 | COC(=O)c1nc(-c2ccc3c(c2F)OC(F)(F)O3)c(F)cc1Cl [F229, Methyl 3-chloro-5-fluoro-6-(2,2,4-trifluorobenzo[d][1,3]dioxol-5-yl)picolinate] | 85 to 94%
18 | O=C(O)c1nc(-c2ccc(C(F)(F)F)cc2Cl)c(F)cc1Cl [F352, 3-chloro-6-(2-chloro-4-(trifluoromethyl)phenyl)-5-fluoropicolinic acid] | 75 to 84%

same assay, conditions: post-emergence, 336 h, canada thistle (Cirsium arvense), 14 Days After Application, 140 g ai/ha, read-out: Visual Growth Reduction (%) CIRAR

Row | SMILES | pest or weed control at 140 g/ha
19 | COC(=O)c1nc(-c2ccc3c(c2F)OC(F)(F)O3)c(F)cc1Cl [F229, Methyl 3-chloro-5-fluoro-6-(2,2,4-trifluorobenzo[d][1,3]dioxol-5-yl)picolinate] | 95 to 100%
20 | O=C(O)c1nc(-c2ccc(C(F)(F)F)cc2Cl)c(F)cc1Cl [F352, 3-chloro-6-(2-chloro-4-(trifluoromethyl)phenyl)-5-fluoropicolinic acid] | 95 to 100%

same assay, conditions: post-emergence, 336 h, crabgrass (Digitaria sanguinalis), 14 Days After Application, 140 g ai/ha, read-out: Visual Growth Reduction (%) DIGSA

Row | SMILES | pest or weed control at 140 g/ha
21 | COC(=O)c1nc(-c2ccc3c(c2F)OC(F)(F)O3)c(F)cc1Cl [F229, Methyl 3-chloro-5-fluoro-6-(2,2,4-trifluorobenzo[d][1,3]dioxol-5-yl)picolinate] | 95 to 100%
22 | O=C(O)c1nc(-c2ccc(C(F)(F)F)cc2Cl)c(F)cc1Cl [F352, 3-chloro-6-(2-chloro-4-(trifluoromethyl)phenyl)-5-fluoropicolinic acid] | 95 to 100%

same assay, conditions: post-emergence, 336 h, lambsquarters (Chenopodium album), 14 Days After Application, 140 g ai/ha, read-out: Visual Growth Reduction (%) CHEAL

Row | SMILES | pest or weed control at 140 g/ha
23 | COC(=O)c1nc(-c2ccc3c(c2F)OC(F)(F)O3)c(F)cc1Cl [F229, Methyl 3-chloro-5-fluoro-6-(2,2,4-trifluorobenzo[d][1,3]dioxol-5-yl)picolinate] | 95 to 100%
24 | O=C(O)c1nc(-c2ccc(C(F)(F)F)cc2Cl)c(F)cc1Cl [F352, 3-chloro-6-(2-chloro-4-(trifluoromethyl)phenyl)-5-fluoropicolinic acid] | 95 to 100%

same assay, conditions: post-emergence, 336 h, redroot pigweed (Amaranthus retroflexus), 14 Days After Application, 140 g ai/ha, read-out: Visual Growth Reduction (%) AMARE

Row | SMILES | pest or weed control at 140 g/ha
25 | COC(=O)c1nc(-c2ccc3c(c2F)OC(F)(F)O3)c(F)cc1Cl [F229, Methyl 3-chloro-5-fluoro-6-(2,2,4-trifluorobenzo[d][1,3]dioxol-5-yl)picolinate] | 95 to 100%
26 | O=C(O)c1nc(-c2ccc(C(F)(F)F)cc2Cl)c(F)cc1Cl [F352, 3-chloro-6-(2-chloro-4-(trifluoromethyl)phenyl)-5-fluoropicolinic acid] | 95 to 100%

same assay, conditions: post-emergence, 336 h, wild oat (Avena fatua), 14 Days After Application, 140 g ai/ha, read-out: Visual Growth Reduction (%) AVEFA

Row | SMILES | pest or weed control at 140 g/ha
27 | COC(=O)c1nc(-c2ccc3c(c2F)OC(F)(F)O3)c(F)cc1Cl [F229, Methyl 3-chloro-5-fluoro-6-(2,2,4-trifluorobenzo[d][1,3]dioxol-5-yl)picolinate] | 95 to 100%
28 | O=C(O)c1nc(-c2ccc(C(F)(F)F)cc2Cl)c(F)cc1Cl [F352, 3-chloro-6-(2-chloro-4-(trifluoromethyl)phenyl)-5-fluoropicolinic acid] | 85 to 94%

same assay, conditions: post-emergence, 336 h, yellow nutsedge (Cyperus esculentus), 14 Days After Application, 140 g ai/ha, read-out: Visual Growth Reduction (%) CYPES

Row | SMILES | pest or weed control at 140 g/ha
29 | COC(=O)c1nc(-c2ccc3c(c2F)OC(F)(F)O3)c(F)cc1Cl [F229, Methyl 3-chloro-5-fluoro-6-(2,2,4-trifluorobenzo[d][1,3]dioxol-5-yl)picolinate] | 45 to 59%
30 | O=C(O)c1nc(-c2ccc(C(F)(F)F)cc2Cl)c(F)cc1Cl [F352, 3-chloro-6-(2-chloro-4-(trifluoromethyl)phenyl)-5-fluoropicolinic acid] | 0 to 29%

Source: patent US20230017045A1, “PYRIDINE AND PYRIMIDINE CARBOXYLATE HERBICIDES AND METHODS OF USE THEREOF” (Dow AgroSciences LLC, priority 2017, published 2023)
